In this assay the test system is HIV-1 (HIVIIIB) replication in MT2 cell line. The assay is described as follows: HIV-1 replication in MT2 cell line with and without 30% human serum (viral RT activity in supernatant). The class given is cell-based. Conditions: Human immunodeficiency virus 1, MT2 cells, average IC50 if tested more than once. The procedure:
HIV-1 Replication in MT2 cell line with and without 30% human serum: The cells are infected at a Multiciplicity of Infection (MOI) of 0.5 for 3 h and then washed twice with complete media to remove residual virus. Cells are then resuspended at 0.5×10^6/ml in complete medium (RPMI, 10% FBS, 1% sodium pyruvate), and seeded into 96-well plates (6.25×10^4/well). The cells are cultured in the presence or absence of various concentrations of test compounds in serial dilutions for 3 days at 37° C. The test compounds are serially diluted in complete medium supplemented or not with 30% human serum. After 3 days, 100 μL of cultured medium with cells are replaced with 120 μL of freshly diluted test compounds in complete medium containing or not 30% Human serum. The level of HIV-1 replication is determined at days 5 after infection by the presence of viral RT activity in harvested supernatant fluid. The IC50 and IC90 values for the virus replication are determined by using GRAPHPAD PRISM software.
The IC50 of the compounds tested in accordance with the HIV replication activity assay MT2 (HIVIIIB) are represented in Table 1.

The mark [1] stands for this setting: with 30% human serum, read-out: MT2 (HIVIIIB) with HS 30% IC50 range.
Setting [2] is: without human serum, read-out: MT2 (HIVIIIB) IC50 range.

pIC50: −log10 of the molar value. Where a name gives a salt, the structure may show the parent alone. Read-outs that look alike come from different tables or passages of the source.

Take `CC(C)C1=C2C3CCC4[C@@]5(C)CC[C@H](OC(=O)CC(C)(C)C(=O)O)C(C)(C)C5CC[C@@]4(C)[C@]3(C)CC[C@@]2(NC(=O)OC2CCNCC2)CC1=O` (stereo partly drawn) [20-16, 3β-O-(3′,3′-Dimethylsuccinyl)-17β-(piperidine-4-oxycarbonylamino)-21-oxolup-18-ene]: the pIC50 under setting [1] is over 6.70. In the case of `Cc1cc(C(=O)N[C@@]23CC[C@]4(C)C(CCC5[C@@]6(C)CC[C@H](OC(=O)CC(C)(C)C(=O)O)C(C)(C)C6CC[C@]54C)C2=C(C(C)C)C(=O)C3)no1` (stereo partly drawn) [19-24, 3β-O-(3′,3′-Dimethylsuccinyl)-17β-(5-methylisoxazole-3-amido)-21-oxolup-18-ene], the pIC50 under setting [1] is over 6.70 and the pIC50 under setting [2] is over 6.70.

`CC(C)C1=C2C3CCC4[C@@]5(C)CC[C@H](OC(=O)CC(C)(C)C(=O)O)C(C)(C)C5CC[C@@]4(C)[C@]3(C)CC[C@@]2(NC(=O)N[C@H](C)c2ccccc2)CC1=O` (stereo partly drawn) [17-62, 3β-O-(3′,3′-Dimethylsuccinyl)-17β-[N′-((R)-1-phenyl-ethyl)-ureido]-21-oxolup-18-ene]: the pIC50 under setting [1] was over 6.70.

Turning to `CC(C)C1=C2[C@H]3CC[C@@H]4[C@@]5(C)CC[C@H](OC(=O)CC(C)(C)C(=O)O)C(C)(C)[C@@H]5CC[C@@]4(C)[C@]3(C)CC[C@@]2(NC(=O)c2ccccn2)CC1=O` [19-15, 3β-O-(3′,3′-Dimethylsuccinyl)-17β-(Pyridin-2-yl)amido-21-oxolup-18-ene hydrochloride], under setting [1], the pIC50 was over 6.70. For `CC(C)C1=C2[C@H]3CC[C@@H]4[C@@]5(C)CC[C@H](OC(=O)CC(C)(C)C(=O)O)C(C)(C)[C@@H]5CC[C@@]4(C)[C@]3(C)CC[C@@]2(NC(=O)N2CCNCC2)CC1=O` [17-15, 3β-O-(3′,3′-Dimethylsuccinyl)-17β-[(piperazine-1-carbonyl)-amino]-21-oxolup-18-ene], the pIC50 under setting [1] is over 6.70 and the pIC50 under setting [2] is over 6.70. Take `CC(=O)N1CCC(C(=O)N[C@@]23CC[C@]4(C)[C@H](CC[C@@H]5[C@@]6(C)CC[C@H](OC(=O)CC(C)(C)C(=O)O)C(C)(C)[C@@H]6CC[C@]54C)C2=C(C(C)C)C(=O)C3)CC1` [19-7, 3β-O-(3′,3′-Dimethylsuccinyl)-17β-(1-acetylpiperidine-4-amido)-21-oxolup-18-ene]: the pIC50 reads like this: under setting [1], over 6.70; under setting [2], over 6.70.

Consider `CC(C)C1=C2[C@H]3CC[C@@H]4[C@@]5(C)CC[C@H](OC(=O)CC(C)(C)C(=O)O)C(C)(C)[C@@H]5CC[C@@]4(C)[C@]3(C)CC[C@@]2(NC(=O)CN(C)C)CC1=O` [19-53, 3β-O-(3′,3′-Dimethylsuccinyl)-17β-(2-dimethylamino-acetamido)-21-oxolup-18-ene], for which the pIC50 under setting [1] was over 6.70. `CC(C)C1=C2C3CCC4[C@@]5(C)CC[C@H](OC(=O)CC(C)(C)C(=O)O)C(C)(C)C5CC[C@@]4(C)[C@]3(C)CC[C@@]2(NC(=O)OC2CCCCC2)CC1=O` (stereo partly drawn) [20-5, 3β-O-(3′,3′-Dimethylsuccinyl)-17β-cyclohexyloxycarbonylamino-21-oxolup-18-ene]: the pIC50 under setting [1] is over 6.70.

Consider `CC(C)C1=C2C3CCC4[C@@]5(C)CC[C@H](OC(=O)CC(C)(C)C(=O)O)C(C)(C)C5CC[C@@]4(C)[C@]3(C)CC[C@@]2(NC(=O)OCc2ccccc2)CC1=O` (stereo partly drawn) [20-8, 3β-O-(3′,3′-Dimethylsuccinyl)-17β-benzyloxycarbonylamino-21-oxolup-18-ene], for which, under setting [1], the pIC50 is over 6.70. Turning to `CC(C)C1=C2C3CCC4[C@@]5(C)CC[C@H](OC(=O)CC(C)(C)C(=O)O)C(C)(C)C5CC[C@@]4(C)[C@]3(C)CC[C@@]2(NC(=O)NC(C)(C)C(F)(F)F)CC1=O` (stereo partly drawn) [17-56, 3β-O-(3′,3′-Dimethylsuccinyl)-17β-[N′-(2,2,2-trifluoro-1,1-dimethyl-ethyl)ureido]-21-oxolup-18-ene], the negative-log IC50 (pIC50) under setting [1] is over 6.70. On the same count and under the same terms, in the case of `CC(C)C1=C2[C@H]3CC[C@@H]4[C@@]5(C)CC[C@H](OC(=O)CC(C)(C)C(=O)O)C(C)(C)[C@@H]5CC[C@@]4(C)[C@]3(C)CC[C@@]2(NC(=O)CCCN2CCCC2)CC1=O` [19-39, 3β-O-(3′,3′-Dimethylsuccinyl)-17β-(4-pyrrolidin-1-yl-butyramido)-21-oxolup-18-ene] it was over 6.70. `CC(C)C1=C2[C@H]3CC[C@@H]4[C@@]5(C)CC[C@H](OC(=O)CC(C)(C)C(=O)O)C(C)(C)[C@@H]5CC[C@@]4(C)[C@]3(C)CC[C@@]2(NC(=O)C2CCN(C(=O)OC(C)(C)C)CC2)CC1=O` [19-5, 3β-O-(3′,3′-Dimethylsuccinyl)-17β-(1-tert-butyloxycarbonylpiperidine-4-amido)-21-oxolup-18-ene]: the pIC50 runs as follows: under setting [1], over 6.70; under setting [2], over 6.70. Turning to `CCc1nnc(C(=O)N[C@@]23CC[C@]4(C)C(CCC5[C@@]6(C)CC[C@H](OC(=O)CC(C)(C)C(=O)O)C(C)(C)C6CC[C@]54C)C2=C(C(C)C)C(=O)C3)o1` (stereo partly drawn) [19-79, 3β-O-(3′,3′-Dimethylsuccinyl)-17β-(5-ethyl-[1,3,4]-oxadiazole-2-amido)-21-oxolup-18-ene], under setting [1], the pIC50 is over 6.70.

`Cc1cc(NC(=O)N[C@@]23CC[C@]4(C)[C@H](CC[C@@H]5[C@@]6(C)CC[C@H](OC(=O)CC(C)(C)C(=O)O)C(C)(C)[C@@H]6CC[C@]54C)C2=C(C(C)C)C(=O)C3)ccn1` [17-47, 3β-O-(3′,3′-Dimethylsuccinyl)-17β-(N′-2-methylpyridin-4-yl-ureido)-21-oxolup-18-ene]: the pIC50 under setting [1] is over 6.70. Regarding `CC(C)OC(=O)N[C@@]12CC[C@]3(C)[C@H](CC[C@@H]4[C@@]5(C)CC[C@H](OC(=O)CC(C)(C)C(=O)O)C(C)(C)[C@@H]5CC[C@]43C)C1=C(C(C)C)C(=O)C2` [20-2], the negative-log IC50 (pIC50) under setting [1] is over 6.70 and the pIC50 under setting [2] is over 6.70. On to `CC(C)C1=C2C3CCC4[C@@]5(C)CC[C@H](OC(=O)CC(C)(C)C(=O)O)C(C)(C)C5CC[C@@]4(C)[C@]3(C)CC[C@@]2(NC(=O)NC2CCC(F)(F)CC2)CC1=O` (stereo partly drawn) [17-57, 3β-O-(3′,3′-Dimethylsuccinyl)-17β-[N′-(4,4-difluorocyclohexyl)ureido]-21-oxolup-18-ene], for which, under setting [1], the negative-log IC50 (pIC50) was over 6.70. `CC(C)C1=C2C3CCC4[C@@]5(C)CC[C@H](OC(=O)CC(C)(C)C(=O)O)C(C)(C)C5CC[C@@]4(C)[C@]3(C)CC[C@@]2(NC(=O)OC2CCCC2)CC1=O` (stereo partly drawn) [20-4, 3β-O-(3′,3′-Dimethylsuccinyl)-17β-cyclopentyloxycarbonylamino-21-oxolup-18-ene]: under setting [1], the pIC50 was over 6.70. On the same count and under the same terms, to `CC(C)C1=C2[C@H]3CC[C@@H]4[C@@]5(C)CC[C@H](OC(=O)CC(C)(C)C(=O)O)C(C)(C)[C@@H]5CC[C@@]4(C)[C@]3(C)CC[C@@]2(NC(=O)c2cnccn2)CC1=O` [19-16, 3β-O-(3′,3′-Dimethylsuccinyl)-17β-(pyrazin-2-yl)amido-21-oxolup-18-ene] belongs over 6.70; to `Cc1nnc(C(=O)N[C@@]23CC[C@]4(C)C(CCC5[C@@]6(C)CC[C@H](OC(=O)[C@H]7CCC[C@@H](C(=O)O)C7)C(C)(C)C6CC[C@]54C)C2=C(C(C)C)C(=O)C3)o1` (stereo partly drawn) [19-81, 3β-O-(cis-Cyclohexane-3′-carboxylic acid-1′-carboxyl)-17β-[(5-methyl-[1,3,4]oxadiazol-2-carbonyl)-amino]-21-oxolup-18-ene], 6.00 to 6.70. As to `CC(C)C1=C2C3CCC4[C@@]5(C)CC[C@H](OC(=O)CC(C)(C)C(=O)O)C(C)(C)C5CC[C@@]4(C)[C@]3(C)CC[C@@]2(NC(=O)c2cncnc2)CC1=O` (stereo partly drawn) [19-23, 3β-O-(3′,3′-Dimethylsuccinyl)-17β-(pyrimidine-5-amido)-21-oxolup-18-ene], the pIC50 was over 6.70 under setting [1] and over 6.70 under setting [2]. As to `CC(C)C1=C2[C@H]3CC[C@@H]4[C@@]5(C)CC[C@H](OC(=O)CC(C)(C)C(=O)O)C(C)(C)[C@@H]5CC[C@@]4(C)[C@]3(C)CC[C@@]2(NC(=O)NC[C@@H]2CCCN2C(=O)OC(C)(C)C)CC1=O` [17-34, 3β-O-(3′,3′-Dimethylsuccinyl)-17β-[(3-(S)-1-tert-butyloxycarbonyl-pyrrolidin-2-ylmethyl)-ureido]-21-oxolup-18-ene], the pIC50 under setting [1] is over 6.70.

As to `CC(C)C1=C2C3CCC4[C@@]5(C)CC[C@H](OC(=O)CC(C)(C)C(=O)O)C(C)(C)C5CC[C@@]4(C)[C@]3(C)CC[C@@]2(NC(=O)N(C)C)CC1=O` (stereo partly drawn) [17-48, 3β-O-(3′,3′-Dimethylsuccinyl)-17β-[N′,N′-dimethyl-ureido]-21-oxolup-18-ene], under setting [1], the pIC50 was over 6.70.

In the case of `CC(C)C1=C2C3CCC4[C@@]5(C)CC[C@H](OC(=O)CC(C)(C)C(=O)O)C(C)(C)C5CC[C@@]4(C)[C@]3(C)CC[C@@]2(NC(=O)c2ccccc2C(=O)O)CC1=O` (stereo partly drawn) [19-61, 3β-O-(3′,3′-Dimethylsuccinyl)-17β-(2-carboxy-benzamido)-21-oxolup-18-ene], the pIC50 under setting [1] was over 6.70. Take `CC(C)C1=C2C3CCC4[C@@]5(C)CC[C@H](OC(=O)CC(C)(C)C(=O)O)C(C)(C)C5CC[C@@]4(C)[C@]3(C)CC[C@@]2(NC(=O)NCc2ccncn2)CC1=O` (stereo partly drawn) [17-52, 3β-O-(3′,3′-Dimethylsuccinyl)-17β-[N′-(pyrimidin-4-ylmethyl)ureido]-21-oxolup-18-ene]: under setting [1], the pIC50 was over 6.70. Regarding `CC(C)NC(=O)N[C@@]12CC[C@]3(C)C(CCC4[C@@]5(C)CC[C@H](OC(=O)CC(C)(C)C(=O)O)C(C)(C)C5CC[C@]43C)C1=C(C(C)C)C(=O)C2` (stereo partly drawn) [17-4, 3β-O-(3′,3′-Dimethylsuccinyl)-17β-[N′-(isopropyl)ureido]-21-oxolup-18-ene], the pIC50 under setting [1] is over 6.70 and the pIC50 under setting [2] is over 6.70.

The pIC50 is the negative decadic logarithm of the IC50, by convention in mol/L.

The record behind these values is US8269026B2, “Lupane derivatives useful for treating HIV” (priority 2008, dated 2012).
